Test results reported in US9994852B2, “Oligonucleotide compositions and uses thereof” (MIRAGEN THERAPEUTICS, INC., priority 2015, dated 2018).
“Also recorded” adds a separate entry of the source. l = locked nucleic acid (LNA); d = 2'-deoxy (DNA)

Key:
Format in all cases: cell-based, human
miR-155-5p [1] = test: Real time PCR of miR-155 direct target genes in CTCL cell lines treated with antimiR-155 (passive uptake); settings: for target de-repression: HuT102 and MyLa cell lines; for antimiR activity by four-gene signature (Bach1, Jarid2, Picalm, Ship1): cumulative data across 2 μM, 50 μM and three mycosis fungoides cell lines; for antimiR activity by four-gene signature (Bach1, Jarid2, Picalm, Ship1) / gene expression signature of four direct targets of miR-155-5p vs untreated cells: 10 μM; for gene expression signature of four direct targets of miR-155-5p vs untreated cells: MJ and HuT102 cells, 72 hours
Method: CTCL cell lines were cultured in complete growth medium with the addition of antimiR-155 compound 1 (SEQ ID NO: 27), compound 2 (SEQ ID NO: 22), compound 3 (SEQ ID NO: 23), and compound 4 (SEQ ID NO: 25) at concentrations ranging from 2 μM to 50 μM. The antimiRs were added to the medium without any additional components to enhance cellular uptake. Cells were harvested after 72 hours of treatment and total RNA was purified. Real time PCR was performed for 13 direct gene targets of miR-155 (Worm et al. 2009; O'Connell et al. 2010; Zhang et al. 2012; and miRagen unpublished data). The relative fold-change in the expression of the 13 genes in the antimiR-treated cells compared to the untreated cells was calculated. […] Four predicted direct targets that lacked expression in at least one cell line were omitted. The gene expression fold-changes were log 10-transformed, plotted on a grayscale, representing the highest relative increase in gene expression, and conversely, the greatest reduction in gene expression.
Four direct gene targets of miR-155-5p (Bach1, Jarid2, Picalm, and Ship1) were chosen for additional analysis, as these four genes were modulated by antimiR-155 in all three mycosis fungoides cell lines (MJ, HuT102, and My-La). These genes were chosen to represent the gene expression signature for antimiR activity in vitro. Additionally, the four-gene signature was used to compare the activity of the antimiR compounds. These gene changes were reproducible over three independent experiments with cells of varying passage numbers. FIGS. 3, 4, 5, 6, and 7 show the fold-change results of this four-gene signature in the HuT102, MJ, HH, My-La, and Hut78 cell lines, respectively. * p-value<0.0001 vs untreated by nonparametric Mann-Whitney test. The Mann-Whitney test was chosen because the variances are unequal between the treatments compared to untreated cells.
The control oligonucleotide was a 14-nucleotide antimiR targeting a C. elegans miRNA not expressed in mammals (control 1). The second oligo is a scramble of the 14-nucleotide sequence of antimiR-155 compound 4 (control 2). The MJ and HuT102 cell lines were incubated with 10 μM antimiR-155 compounds 3 (SEQ ID NO: 23) or 4 (SEQ ID NO: 25) or the two control oligos for 72 hours.

HuT102 cells [2] = test: Apoptosis by caspase 3/7 activity in HuT102 cells; settings: for apoptosis (caspase 3/7 activity normalized to ATP): over time
Method: (§1) Since the level of ATP correlates directly with cell number, ATP was measured to determine the cell number. […] The reduction in cell number was accompanied by an increase in apoptosis as measured by caspase 3/7 activity (FIG. 14B). The caspase 3 and 7 proteins are members of the cysteine aspartic acid-specific protease (caspase) family. The caspase family plays key effector roles in apoptosis in mammalian cells. Caspase activity was normalized to ATP levels, as all cells have a low level of basal caspase activity that can confound the results if not normalized appropriately.
(§2) In addition to a time course, a dose titration of antimiR-155 compounds in HuT102 cells was performed with ATP and caspase 3/7 measurements performed after eight days of treatment (FIGS. 15A and 15B, respectively).

My-La cells [3] = test: Caspase 3/7 activity in My-La cells; settings: over time
Method: (§3) FIGS. 17A and 17B show proliferation and activation of caspase 3/7 over time with compounds 3 (SEQ ID NO: 23) and 4 (SEQ ID NO: 25).
(§4) In addition to a time course, a dose titration of antimiR-155 compounds in My-La cells was performed with ATP and caspase 3/7 measurements after eight days of treatment (FIGS. 18A and 18B, respectively).

My-La cells [4] = test: Proliferation of My-La cells (ATP)
Method: as §3, §4

HuT102 cells [5] = test: Proliferation of HuT102 cells (cell number by ATP level); settings: for proliferation (cell number by ATP): over time
Method: as §1, §2

miR-155 = test: Dual luciferase reporter assay with miR-155 binding site in HeLa cells; settings: 10 nM miR-155 mimic, 2 nM oligonucleotide
Description: To assess the activity of a miR-155 inhibitor, a dual luciferase reporter assay system was used. In brief, the binding site for miR-155 was cloned into the 3′ UTR of the Renilla luciferase gene located within the commercially-available psiCHECK-2 vector system (Promega). In the absence of a miR-155 inhibitor, the expression of Renilla luciferase protein is repressed by a miR-155 mimic. In the presence of a miR-155 inhibitor, the expression of Renilla luciferase protein is de-repressed. […] Expression of either Renilla or firefly luciferase is measured through detection of light emitted by the luciferase protein.
50 ng of the dual luciferase reporter plasmid containing the miR-155 binding site was transfected into HeLa cells without a miR-155 mimic (“Reporter” only), with 10 nM miR-155 mimic (“Reporter+mimic”), with 10 nM miR-155 mimic and 2 nM of the control oligonucleotide, or with 10 nM miR-155 mimic and 2 nM of a test miR-155 oligonucleotide inhibitor of 11-14 nucleotide lengths (Table 4). The miR-155 mimic was purchased from Dharmacon (miRIDIAN microRNA Human hsa-miR-155-5p mimic; Accession number MIMAT0000646; catalog # C-300647-05-0005) and contains the mature miRNA sequence: -[…]- (SEQ ID NO: 121). The control oligonucleotide used in the experiment had the following sequence: 5′-lCs.dTs.dAs.lGs.dAs.lAs.dAs.lGslAs.dGs.lTs.dAs.lGs.lA-3′ (SEQ ID NO: 122).

miR-155-5p [6] = test: Whole genome expression profiling of CTCL cell lines treated with antimiR-155
Method: To gain a more complete understanding of the molecular consequences of miR-155 inhibition in mycosis fungoides cell lines, whole genome transcriptome profiling was performed on MJ and HuT102 cell lines treated with antimiR-155 compounds 3 (SEQ ID NO: 23) or 4 (SEQ ID NO: 25) for 4 days (96 hours) or 8 days. The statistically-significant gene expression signature was defined by one-way ANOVA for antimiR-treated cells compared to untreated cells at the same time point. […] The fold-change results are shown in FIGS. 9 and 10 as heat maps, as described for FIG. 2.
The gene expression profile common to both cell lines and both compounds at Day 4 was analyzed for the enrichment of miR-155-5p seed-matched gene targets (8-, 7-, and 6-nucleotide binding sites). The fold-change of these genes is represented in a heat map in FIG. 11. […] The gene signature was also analyzed using the DAVID bioinformatic resource for functional gene annotation enrichment (Huang da et al., 2009). There was no significant enrichment of Gene Ontology database terms as defined by a Benjamini-corrected p-value of <0.01.
The gene expression signature common to both cell lines and both compounds at Day 8 (677 genes in total) was subjected to analysis for enrichment of seed-matched gene targets and for functional gene annotation.
The activity of antimiR-155 compound 4 (SEQ ID NO: 25) was further investigated by treating the third mycosis fungoides cell line, MyLa, with compound 4 (SEQ ID NO: 25) for 4 days and 8 days and profiling the changes in gene expression. To test the specificity of compound 4 (SEQ ID NO: 25), cells of the Sézary syndrome cell line (HuT78) were treated with compound 4 (SEQ ID NO: 25) for 8 days and the changes in gene expression were profiled. Genes that are statistically changed with a false discovery rate (FDR) corrected p-value of <0.05 in response to compound 4 (SEQ ID NO: 25) in three mycosis fungoides cell lines, HuT102, MJ, and My-La, are depicted in the heat map as described above. The total number of genes in the heat map is 324. […]

HuT102 cells [7] = test: AntimiR-155 combined with HDAC inhibitor SAHA: caspase 3/7 activity in HuT102 cells; settings: 10 μM compound combined with 0.25 or 0.5 μM SAHA
Method: Vorinostat (chemical name: SAHA) is a standard-of-care epigenetic therapy for patients with advanced mycosis fungoides. However, the side-effects of pan-HDAC inhibitors are well-described. To determine whether a combination therapy might show enhanced activity compared to treatment with individual compounds, HuT102 cells were treated with a sub-efficacious dose of SAHA combined with antimiR-155.
HuT102 cells were treated with 0.25 μM SAHA and 10 μM compound 3 (SEQ ID NO: 23) or 4 (SEQ ID NO: 25), individually or in combination. Cells were harvested daily to measure ATP levels and caspase 3/7 activity. A similar experiment was performed with 0.50 μM SAHA.
FIGS. 20A and 20B show the effect on caspase 3/7 activity.

Substance | target de-repression (miR-155-5p [1]) | antimiR activity by four-gene signature (Bach1, Jarid2, Picalm, Ship1) (miR-155-5p [1]) | apoptosis (caspase 3/7 activity normalized to ATP) (HuT102 cells [2]) | activation of caspase 3/7 (My-La cells [3]) | proliferation (ATP) (My-La cells [4]; over time) | proliferation (cell number by ATP) (HuT102 cells [5]) | de-repression of Renilla luciferase expression (miR-155) | gene expression signature of four direct targets of miR-155-5p vs untreated cells (miR-155-5p [1]) | number of genes up- or down-regulated in all three mycosis fungoides cell lines (Table 2) (miR-155-5p [6]; HuT102, MJ, MyLa, Day 4 or Day 8) | magnitude of gene regulation (whole genome heat map) (miR-155-5p [6]; MJ and HuT102 cells, 4 days and 8 days) | change in gene expression (miR-155-5p [6]; Sézary syndrome cell line HuT78, 8 days) | caspase 3/7 activity (HuT102 cells [2]; day 8 of treatment) | apoptosis (caspase 3/7 activity normalized to ATP) (HuT102 cells [2]; listed as Compound 4) | proliferation (ATP) (My-La cells [4]; dose titration, eight days of treatment) | apoptosis (caspase 3/7 activity) (HuT102 cells [7]) | proliferation (ATP) (HuT102 cells [5]; day 8 of treatment)
5′-lCs.dGs.lAs.lTs.lTs.lAs.lGs.dCs.lAs.lTs.lTs.lA-3′ (CGATTAGCATTA; sugars from the 5' end l1 d1 l5 d1 l4, all phosphorothioate, methylation of C not given here) [compound 2] | greater target de-repression than antimiR-155 compound 3 (SEQ ID NO: 23) | more active than compounds 1 (SEQ ID NO: 27) and 3 (SEQ ID NO: 23) | greater apoptotic activity | greater apoptotic activity | greater inhibition of proliferation | greater inhibition of proliferation |  |  |  |  |  |  |  |  |  | 
5′-lCs.dTs.dAs.lGs.dAs.lAs.dAs.lGslAs.dGs.lTs.dAs.lGs.lA-3′ (CTAGAAAGAGTAGA; sugars from the 5' end lddldldlldldll, all phosphorothioate, methylation of C not given here) [control oligonucleotide, control oligonucleotide used in the dual luciferase reporter experiment] |  |  |  |  |  |  | did not de-repress the expression of luciferase |  |  |  |  |  |  |  |  | 
5′-lCs.dGs.lAs.lTs.lTs.dAs.lGs.dCs.lAs.lTs.lTs.lA-3′ (CGATTAGCATTA; sugars from the 5' end ldllldldllll, all phosphorothioate, methylation of C not given here) [compound 3] |  |  |  |  |  |  |  | statistically significantly different from that of untreated cells |  |  |  |  |  |  |  | 
5′-lCs.dAs.lCs.dGs.dAs.lTs.lTs.dAs.lGs.dCs.lAs.lTs.lTs.lA-3′ (CACGATTAGCATTA; sugars from the 5' end ldlddlldldllll, all phosphorothioate, methylation of C not given here) [compound 4] | greater target de-repression than antimiR-155 compound 3 (SEQ ID NO: 23) | more active than compounds 1 (SEQ ID NO: 27) and 3 (SEQ ID NO: 23) | greater apoptotic activity | greater apoptotic activity; also recorded: greater activity compared to compound 3 (SEQ ID NO: 23) | greater inhibition of proliferation; also recorded: greater activity compared to compound 3 (SEQ ID NO: 23) | greater inhibition of proliferation; also recorded: comparable to that seen with bexarotene |  | statistically significantly different from that of untreated cells | 587 | greater magnitude of gene regulation in both cell lines and at both time points | did not show much change in the gene expression | confirm the inhibitory potential | greater induction of apoptosis than bexarotene | further confirm the inhibitory potential | increased apoptosis compared to each treatment alone | confirm the inhibitory potential
